The record followed here is PubChem BioAssay (NCI).

Values joined by “and” are separate entries in the source; they are usually repeats but may differ in a detail not shown here. Equal values may be shown once.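 Each compound was tested at five concentrations against cells in 96-well plates for 48 hours. GI50 is the concentration that inhibits growth by half. At the TGI there is no net growth.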

Some test systems named below: RPMI-8226 leukemia; OVCAR-5 ovarian; M14 melanoma; SW-620 colon; SNB-75 CNS; HCT-15 colon; SK-MEL-5 melanoma; DU-145 prostate; LOX IMVI melanoma; UO-31 renal.
Common to all, as to test: inhibition of tumour cell growth, NCI panel, 48 h

For `O=CN1CCN(CC(O)CN2CCCCC2)CC1` (configuration not stated), the TGI in the assay on RPMI-8226 leukemia, in the assay with OVCAR-5 ovarian, in the assay with M14 melanoma, with SW-620 colon, with SNB-75 CNS and in the assay with HCT-15 colon was > 100 µM throughout. Besides, the TGI in the assay with SK-MEL-5 melanoma, with DU-145 prostate, in the assay with LOX IMVI melanoma and in the assay with UO-31 renal was > 100 µM each time.
`COC(=O)[C@@H](C)C[C@H](Cc1ccccc1)NC(=O)c1csc([C@@H](C[C@H](C(C)C)N(C)C(=O)[C@@H](NC(=O)[C@H]2CCCCN2C)C2CCCCC2)OC(C)=O)n1`: the GI50 is 0.000324 µM and 0.0025 µM in the assay on RPMI-8226 leukemia; 0.00685 µM and 0.0025 µM in the assay with OVCAR-5 ovarian; 0.000304 µM and < 0.0025 µM with M14 melanoma; 0.000424 µM and 0.0025 µM with SW-620 colon; 0.00103 µM and 0.0025 µM with SNB-75 CNS; 0.00102 µM and 0.0025 µM in the assay on HCT-15 colon. Also, the GI50 was 0.000291 µM and 0.0025 µM with DU-145 prostate; 0.00139 µM and 0.0025 µM in the assay with LOX IMVI melanoma; 0.00684 µM and 0.0415 µM with UO-31 renal. The TGI in the assay with RPMI-8226 leukemia is 3.64 µM; in the assay with OVCAR-5 ovarian, > 25 µM; in the assay with M14 melanoma, 0.00312 µM and < 0.0025 µM; in the assay on SW-620 colon, > 25 µM; in the assay with SNB-75 CNS it was 22.2 µM; with HCT-15 colon it was > 25 µM. In addition, the TGI in the assay with SK-MEL-5 melanoma is 0.0131 µM and 0.0115 µM; in the assay on LOX IMVI melanoma it was 23 µM; with UO-31 renal it was 7.76 µM.
As to `NC(=O)c1cc(S(=O)(=O)Nc2nnc(-c3ccccc3)c(-c3ccccc3)n2)c(SCc2ccccc2)cc1Cl`, the GI50 in the assay on RPMI-8226 leukemia is > 44.1 µM; with OVCAR-5 ovarian, > 100 µM; with M14 melanoma, > 100 µM; in the assay on SW-620 colon, > 56.1 µM; with HCT-15 colon, > 88.3 µM; with SK-MEL-5 melanoma it was > 79.6 µM. In addition, the GI50 is > 100 µM in the assay on DU-145 prostate, > 82.3 µM in the assay with LOX IMVI melanoma and > 100 µM in the assay on UO-31 renal. Further, the TGI in the assay on RPMI-8226 leukemia was > 65.1 µM; in the assay with OVCAR-5 ovarian it was > 100 µM; in the assay with M14 melanoma it was > 100 µM; with SW-620 colon, > 100 µM; with SNB-75 CNS, > 61.5 µM; in the assay with HCT-15 colon, > 100 µM. The TGI with SK-MEL-5 melanoma, in the assay with DU-145 prostate, in the assay on LOX IMVI melanoma and in the assay on UO-31 renal was > 100 µM throughout.
As for `COCC1(CO)C(=O)C2CCN1CC2` (configuration not stated), the GI50 in the assay on RPMI-8226 leukemia is 23.8 µM; in the assay on OVCAR-5 ovarian it was 26.2 µM; with M14 melanoma, 15.4 µM; in the assay on SW-620 colon it was 18.1 µM; with SNB-75 CNS, 21.9 µM; in the assay with HCT-15 colon, 15.8 µM. In addition, the GI50 in the assay on SK-MEL-5 melanoma is 43.7 µM; with DU-145 prostate, 17.7 µM; in the assay on LOX IMVI melanoma it was 18.2 µM; with UO-31 renal, 15.1 µM. Also, the TGI is 64.3 µM in the assay on RPMI-8226 leukemia; > 55.7 µM in the assay on OVCAR-5 ovarian; 31.6 µM with M14 melanoma; 37.9 µM with SW-620 colon; > 94.2 µM in the assay with SNB-75 CNS; 32.7 µM with HCT-15 colon. Moreover, the TGI with SK-MEL-5 melanoma was > 77.7 µM; with DU-145 prostate, 32.3 µM; in the assay on LOX IMVI melanoma it was 37.2 µM; in the assay with UO-31 renal it was 30 µM.
Consider `O[C@H](c1cc(C(F)(F)F)nc2c(C(F)(F)F)cccc12)[C@@H]1CCCCN1`, for which the GI50 is 11.2 µM in the assay with RPMI-8226 leukemia; 7.21 µM in the assay with OVCAR-5 ovarian; 2.53 µM with M14 melanoma; 2.05 µM with SW-620 colon; 2.21 µM with SNB-75 CNS; 11.9 µM in the assay with HCT-15 colon. Further, the GI50 in the assay on SK-MEL-5 melanoma is 3.64 µM; in the assay on DU-145 prostate it was 3.41 µM; with LOX IMVI melanoma it was 1.51 µM; in the assay on UO-31 renal it was 1.88 µM. The TGI in the assay with RPMI-8226 leukemia was 42.8 µM; with OVCAR-5 ovarian it was 20.7 µM; in the assay on M14 melanoma, 6.69 µM; with SW-620 colon, 4.52 µM; in the assay on SNB-75 CNS it was 11.5 µM; in the assay with HCT-15 colon, 27 µM. For the same compound, the TGI in the assay with SK-MEL-5 melanoma is 8.09 µM; in the assay on DU-145 prostate, 10.6 µM; in the assay with LOX IMVI melanoma it was 2.99 µM; with UO-31 renal, 9.48 µM.
In the case of `CCOc1ccncc1[N+](=O)[O-]`, the TGI in the assay on RPMI-8226 leukemia, with OVCAR-5 ovarian, in the assay on M14 melanoma, in the assay with SW-620 colon, with SNB-75 CNS and with HCT-15 colon was > 100 µM each time. The TGI with SK-MEL-5 melanoma, with DU-145 prostate, with LOX IMVI melanoma and in the assay with UO-31 renal was > 100 µM throughout.
Consider `CSc1ccc2c(c1)C(=O)c1c-2n(CCCBr)c(=O)c2cc([N+](=O)[O-])ccc12`, for which the GI50 was 4.11 µM with RPMI-8226 leukemia; > 100 µM with OVCAR-5 ovarian; 3.38 µM with M14 melanoma; 4.04 µM in the assay on SW-620 colon; 7.9 µM in the assay on SNB-75 CNS; 47.2 µM in the assay with HCT-15 colon. In addition, the GI50 in the assay on SK-MEL-5 melanoma is 3 µM; in the assay on DU-145 prostate it was 3.9 µM; in the assay on LOX IMVI melanoma, 2.11 µM; with UO-31 renal, 3.63 µM. In addition, the TGI in the assay on RPMI-8226 leukemia, with OVCAR-5 ovarian, in the assay on M14 melanoma, with SW-620 colon, in the assay on SNB-75 CNS and in the assay with HCT-15 colon was > 100 µM in each case. For the same compound, the TGI was 25.8 µM in the assay on SK-MEL-5 melanoma, > 100 µM in the assay on DU-145 prostate, 41.5 µM with LOX IMVI melanoma and > 100 µM with UO-31 renal.
Consider `C=C1C(=O)O[C@H]2[C@H]1CC/C(COC(=O)/C=C\C(=O)NCc1ccc(Cn3c(=O)sn(CCCC)c3=O)cc1)=C\CC[C@@]1(C)O[C@@H]21`, for which the GI50 with RPMI-8226 leukemia was 0.274 µM; in the assay on OVCAR-5 ovarian, 1.33 µM; in the assay with M14 melanoma, 0.678 µM; in the assay on SW-620 colon it was 0.201 µM; in the assay on SNB-75 CNS, 0.697 µM; in the assay with HCT-15 colon, 0.202 µM. Moreover, the GI50 with SK-MEL-5 melanoma is 1.4 µM; in the assay with DU-145 prostate, 0.854 µM; in the assay on LOX IMVI melanoma it was 0.179 µM; in the assay on UO-31 renal, 0.387 µM. In addition, the TGI in the assay with RPMI-8226 leukemia came out at 0.949 µM; in the assay with OVCAR-5 ovarian it was 2.75 µM; in the assay on M14 melanoma it was 2.06 µM; in the assay on SW-620 colon, 0.443 µM; in the assay with SNB-75 CNS, 2.19 µM; in the assay with HCT-15 colon, 0.467 µM. For the same compound, the TGI in the assay with SK-MEL-5 melanoma came out at 2.71 µM; in the assay with DU-145 prostate it was 2.16 µM; in the assay with LOX IMVI melanoma, 0.379 µM; with UO-31 renal, 1.61 µM.
